Test results published in patent publication US20150183721A1, “AMINO-ALCOHOL ANALOGUES AND USES THEREOF” (YISSUM RESEARCH DEVELOPMENT COMPANY OF THE HEBREW …, priority 2009, published 2015).
Entries after “also recorded” stand apart in the source; their conditions may differ. Read-outs that look alike come from different tables or passages of the source.

Tests used:
[1] = Solubility of compounds in DMSO, ethanol and Solutol-HS15 (20 mM stock solutions); type: physicochemical
Protocol: General Procedure for the Solutol Emulsions Preparation
The amino-alcohol compound of the invention (4 μmol) was mixed with Solutol HS15 (6.0 mg) and heated to 70-80° C. Hot water (1 ml) was added to the mixture and stirred thoroughly. Thickening occurs initially due to hydration and reaches a maximum when half of the water has been added. The viscosity decreases as more water is added.
The solubility of compounds of the invention in ethanol and DMSO was tested in order to study their cytotoxicity.

[2] = system: A2780 (ovarian carcinoma cell line); assay: Cytotoxicity test, IC50 determination by MTT test; type: cell-based; conditions: 24 hr incubation, 20000 cells/well, 10% serum, read-out: IC50 ± SD (MTT-Test), A2780
Protocol: (§1) Cytotoxicity Tests (IC50 Determination by MTT test)
(§2) The cytotoxicity of the compounds of the invention A1-A12 was tested in comparison to cis-Pt in four cancer cell-lines:
A2780 (ovarian carcinoma cell line), […]
(§3) HT-29 (Human colon adenocarcinoma grade II) by MTT test after an incubation of 24 hours.
(§4) Culture Medium Preparation for Attached Cell-lines: A2780, A2780cisR, CRL-5803, HT-29. • Medium RPMI-1640: 86% • Serum (FCS-fatal calf serum/FBS-fatal bovine serum): 10% • L-Glutamine: 1% • Antibiotics-penicillin-streptomycin(P/S): 1% • Na pyruvate: 1% • HEPES: 1%

[3] = system: HT-29 (Human colon adenocarcinoma grade II); assay: Cytotoxicity test, IC50 determination by MTT test; type: cell-based; conditions: 24 hr incubation, 20000 cells/well, 10% serum, read-out: IC50 ± SD (MTT-Test), HT-29
Protocol: as §1
(§5) The cytotoxicity of the compounds of the invention A1-A12 was tested in comparison to cis-Pt in four cancer cell-lines: […]
as §3, §4

[4] = system: A2780cisR (ovarian carcinoma-cisPt resistance cell line); assay: Cytotoxicity test, IC50 determination by MTT test; type: cell-based; conditions: 24 hr incubation, 20000 cells/well, 10% serum, read-out: IC50 ± SD (MTT-Test), A2780cisR
Protocol: as §1, §5
A2780cisR (ovarian carcinoma-cisPt resistance cell line), […]
as §3, §4

[5] = system: CRL-5803 (non-small cell lung carcinoma cell line); assay: Cytotoxicity test, IC50 determination by MTT test; type: cell-based; conditions: 24 hr incubation, 20000 cells/well, 10% serum, read-out: IC50 ± SD (MTT-Test), CRL5803
Protocol: as §1, §5
(§6) CRL-5803 (non-small cell lung carcinoma cell line), and
as §3, §4

[6] = system: Caspase-3; assay: Apoptosis determination by Caspase-3 assay (EnzCheck Caspase-3 Assay Kit #2); type: cell-based; conditions: 8 hr incubation
Protocol: Apoptosis Determination by Caspase-3 Assay
The assay was done according to the protocol of EnzCheck Caspase-3 Assay Kit #2 (Invitrogen) [Ref: 4].
Caspase-3 was checked using invitrogene protocol. 8 hr incubation was done.

[7] = system: SPM formation in A2780cisR cells; assay: Enzymatic assay in cells: formation of fluorescent SPM from Bodipy-12-CER (SMS inhibition), HPLC; type: cell-based; conditions: 72 hr incubation in total, related to the control
Protocol: (§7) Enzymatic Assay in Cells (SMS, GCS and CDase Enzyme inhibition Studies) • Plate 10,000 cells in 0.5 ml culture media per well in a 48 well plate. • Incubate (37° C., 5% CO2) overnight to allow the cells to attach to the wells. • Add 10 μl of the fluorescent reagent BodiPy-12-Cer 0.5 μM/well. • After 48 hr incubation with the BodiPy-12-Cer, add 10 μl of the drug of interest dissolved in DMSO/Ethanol/solutol to each well. • Incubate (37° C., 5% CO2) for another 24 hr. • Remove the media. • Wash each well with 200 μl PBS. • Add 2000 trypsin allow sitting for 5 minutes in incubator. • Neutralize Trypsin with culture medium (complete to 1 ml) • Add suspension to 1.5 ml ephendorf. • Centrifuge for 5 minutes at 1200 rpm then remove the media. • Extract the cells with 1 ml of 1:2 CH2Cl2:MeOH by strong vortex stirring followed by centrifuge for 5 minutes at 13400 rpm. Then add the extraction into 2 ml ephendorf. • Extract the cells again with the same procedure with 1 ml of 1:1 CH2Cl2:MeOH. • Remove the solvent. • Add 2000 ethanol into the 2 ml ephendorf, do strong vortex stirring followed by centrifuge for 5 minutes at 13400 rpm. • Take 150 μl of the above sample and inject to the HPLC to quantify the relative metabolite relatively to control samples. • HPLC method conditions are:
(§8) Conditions: RP-8 Column, EX. λ 505 nm, EM. λ 530 nm
(§9) A fluorescent procedure was utilized in order to study the enzymatic inhibition of glucosylceramide synthase (GCS), ceramidases (CDase) and sphingomyelin synthase (SMS) enzymes, which can shed some light on a possible mechanism for ceramide accumulation and apoptosis. The fluorescent procedure was based on a 48-hr incubation of cancer cells with the fluorescent substrate, Bodipy (4,4-difluoro-4-bora-3a,4a-diaza-s-indacene), conjugated ceramide (Bodipy-12-CER) followed by another 24-hr period of incubation in the presence of nontoxic concentrations of compounds of the invention (72 hr incubation in total). After a predetermine incubation period, cells were washed, their lipids were extracted and the various lipids containing fluorescent fatty acid-ceramide, SPM and GC were quantified by HPLC.

[8] = system: SPM formation in A2780 cells; assay: as above; type: cell-based; conditions: 72 hr incubation in total, related to the control
Protocol: as §7, §8, §9

[9] = system: SPM formation in HT-29 cells; assay: as above; type: cell-based, Human; conditions: nontoxic concentrations (A2: 4, 6, 8, 12 μM/well; A10: 0.5, 1, 2, 4 μM/well), 72 hr
Protocol: as §7
Conditions: RP-8 Column, EX. λ 505 nm, EM. λ 530 nm […]

[10] = system: SPM formation in CRL5803 cells; assay: as above; type: cell-based; conditions: nontoxic concentrations (A2: 4, 6, 8, 12 μM/well; A10: 0.5, 1, 2, 4 μM/well), 72 hr
Protocol: as §7, §8, §9

[11] = system: A2780, A2780cisR, CRL-5803, HT-29; assay: Cytotoxicity (MTT), overall statements on the four cancer cell-lines; type: cell-based; conditions: 24 hr, compared to cis-Pt
Protocol: as §1, §2
A2780 (ovarian carcinoma cell line),
A2780cisR (ovarian carcinoma-cisPt resistance cell line),
as §6, §3, §4

[12] = Solutol-HS15 lipidic emulsion, aqueous with cosolvent or surfactant or cyclodextrin, read-out: Solubility, Solutol-HS15
[13] = organic solvent or mixture, DMSO, 20 mM stock solutions, read-out: Solubility, DMSO
[14] = organic solvent or mixture, ethanol, 20 mM stock solutions, read-out: Solubility, Ethanol
[15] = Homo sapiens, A2780, solutol solutions
[16] = Homo sapiens, HT-29, solutol solutions
[17] = Homo sapiens, A2780cisR, solutol solutions
[18] = Homo sapiens, A2780, ethanol solutions
[19] = Homo sapiens, HT-29, ethanol solutions
[20] = Homo sapiens, A2780cisR, ethanol solutions

SMILES	solubility [1, 12] [mM]	solubility [1, 13] [mM]	solubility [1, 14] [mM]	IC50 [2, 15] [µM]	IC50 [3, 16] [µM]	IC50 [4, 17] [µM]	IC50 ([5]; solutol solutions) [µM]	IC50 ([5]; ethanol solutions) [µM]	Solubility, Ethanol ([1]; ethanol, 20 mM stock solutions)	IC50 ([2]; ethanol solutions) [µM]	IC50 ([3]; ethanol solutions) [µM]	IC50 ([4]; ethanol solutions) [µM]	also measured
CCCCCCCCCCCCCCCCC(O)CN(CC)CC (stereo not drawn) [Compound A1, 1-DEA-amino-octadecan-2-ol]	> 4	> 20	> 20	17 ± 4	24 ± 4	21 ± 1	40 ± 3						solubility in ethanol and DMSO ([1]; 20 mM stock solutions): good solubility in both solvents
CCCCCCCCCCCCCCCCC(O)CNCCCC (stereo not drawn) [Compound A2, 1-Butyl-amino-octadecan-2-ol]	> 4		< 20	11 ± 3	16 ± 2	12 ± 3	32 ± 4						solubility in ethanol and DMSO ([1]; 20 mM stock solutions): only soluble in DMSO; Solubility, DMSO ([1]; DMSO, 20 mM stock solutions): ✓*; Caspase-3 increase ([6]; 20 μM): 3 fold; inhibition of SPM formation ([7]; 6 μM): no significant effect; inhibition at 6 µM ([8]; Homo sapiens, 6 μM): ~10%
CCCCCCCCCCCCCCCCC(O)CNCCCCCC (stereo not drawn) [Compound A3, 1-Hexyl-amino-octadecan-2-ol]	> 4	< 20	< 20	11 ± 1	19 ± 5	9 ± 1	18 ± 2						
CCCCCCCCCCCCCCCCC(O)CNCCCCCCCC (stereo not drawn) [Compound A4, 1-Octyl-amino-octadecan-2-ol]	> 4	< 20	< 20	14 ± 3	15 ± 6	12 ± 2	29 ± 4						
CCCCCCCCCCCCCCCCC(O)CNCCCCCCCCCCCC (stereo not drawn) [Compound A5, 1-Dodecyl-amino-octadecan-2-ol]	> 4	< 20	< 20	> 100	> 100	> 100	> 100						
CCCCCCCCCC(O)CNCCCCCC (stereo not drawn) [Compound A8, 1-Hexyl-amino-undecan-2-ol]		> 20	> 20					33 ± 6					IC50 [2, 18]: 16 ± 1 µM; IC50 [3, 19]: 33 ± 4 µM; IC50 [4, 20]: 22 ± 3 µM
CCCCCCCCCC(O)CNCCCCCCCC (stereo not drawn) [Compound A9, 1-Octyl-amino-undecan-2-ol]		< 20						14 ± 1	✓*				IC50 [2, 18]: 7 ± 1 µM; IC50 [3, 19]: 11 ± 2 µM; IC50 [4, 20]: 10 ± 1 µM
CCCCCCCCCCCCNCC(O)CCCCCCCCC (stereo not drawn) [Compound A10, 1-Dodecyl-amino-undecan-2-ol]								10 ± 2	✓*	4 ± 1	8 ± 2	4 ± 1	SPM formation related to the control (in words) [9]: reduction in SPM formation; Caspase-3 increase ([6]; 10 μM): 7 fold; SPM formation related to the control (in words) [10]: reduction in SPM formation; effect on SPM formation ([7]; 0.5 μM): ~8%; effect on SPM formation ([8]; 0.5 μM): about 22%; anticancer activity (in words) [11]: most active; also recorded: highest activity
CCCCCCCCCCCCCCNCC(O)CCCCCCCCC (stereo not drawn) [Compound A11, 1-tetradecyl-amino-undecan-2-ol]								33 ± 6	✓*	9 ± 2	30 ± 7	9 ± 3	
CCCCCCCCCCCCCCCCNCC(O)CCCCCCCCC (stereo not drawn) [Compound A12, 1-hexadecyl-amino-undecan-2-ol]								> 100	✓*	> 100	> 100	> 100	
N.N.[Cl][Pt][Cl] [cis-Pt, reference compound]							> 100	> 100		30 ± 1	> 100	> 100	IC50 ([2]; solutol solutions): 30 ± 1 µM; IC50 ([3]; solutol solutions): > 100 µM; IC50 ([4]; solutol solutions): > 100 µM
